Laboratory results reported in US8691753B2 (priority 2009, dated 2014).
Read-outs that look alike come from different tables or passages of the source.

Columns and labels:
Type in all cases: biochemical
MMP-8h = MMP-8h (Homo sapiens (Human), UniProt P22894); test: Inhibition constant (Ki) on MMP-8h; settings: human MMP-8
MMP-3h = MMP-3h (Homo sapiens (Human), UniProt P08254); test: Inhibition constant (Ki) on MMP-3h; settings: human MMP-3
Method in brief: (§1)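 Human MMPs; Ki by published enzyme-inhibition method.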

MMP-12h = MMP-12h (Homo sapiens (Human), UniProt P39900); test: Inhibition constant (Ki) on MMP-12h; settings: human MMP-12
Chain of MMP-12h (P39900 106-470): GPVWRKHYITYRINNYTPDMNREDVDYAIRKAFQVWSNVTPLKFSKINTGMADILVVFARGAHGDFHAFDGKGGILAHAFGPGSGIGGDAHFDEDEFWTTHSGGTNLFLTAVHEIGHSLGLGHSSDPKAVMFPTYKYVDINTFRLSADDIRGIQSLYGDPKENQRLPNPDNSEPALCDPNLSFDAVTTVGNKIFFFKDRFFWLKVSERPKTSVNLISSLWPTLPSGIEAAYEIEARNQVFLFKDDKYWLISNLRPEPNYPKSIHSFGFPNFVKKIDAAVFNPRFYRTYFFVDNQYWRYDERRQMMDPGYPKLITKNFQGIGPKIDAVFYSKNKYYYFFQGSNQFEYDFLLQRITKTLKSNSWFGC

MMP-13h = MMP-13h (Homo sapiens (Human), UniProt P45452); test: Inhibition constant (Ki) on MMP-13h; settings: human MMP-13
Method in brief: as §1

MMP-2h = MMP-2h (Homo sapiens (Human), UniProt P08253); test: Inhibition constant (Ki) on MMP-2h; settings: human MMP-2
Chain of MMP-2h (P08253 110-660): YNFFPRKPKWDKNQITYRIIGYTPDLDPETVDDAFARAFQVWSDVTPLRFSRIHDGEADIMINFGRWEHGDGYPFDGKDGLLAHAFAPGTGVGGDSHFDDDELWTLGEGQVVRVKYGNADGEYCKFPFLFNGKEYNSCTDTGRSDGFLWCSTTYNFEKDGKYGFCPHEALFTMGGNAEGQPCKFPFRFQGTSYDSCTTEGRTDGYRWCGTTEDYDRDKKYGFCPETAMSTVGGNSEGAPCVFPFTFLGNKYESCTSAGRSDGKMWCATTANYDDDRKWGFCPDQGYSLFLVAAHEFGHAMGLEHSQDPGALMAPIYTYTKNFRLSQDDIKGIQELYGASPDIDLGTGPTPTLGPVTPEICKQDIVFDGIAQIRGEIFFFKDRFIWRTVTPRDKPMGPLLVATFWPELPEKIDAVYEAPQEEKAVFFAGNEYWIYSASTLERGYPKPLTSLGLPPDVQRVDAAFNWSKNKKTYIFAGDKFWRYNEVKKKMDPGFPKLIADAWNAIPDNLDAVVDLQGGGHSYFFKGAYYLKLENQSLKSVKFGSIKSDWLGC
Method in brief: as §1

MMP-9h = MMP-9h (Homo sapiens (Human), UniProt P14780); test: Inhibition constant (Ki) on MMP-9h; settings: human MMP-9
Chain of MMP-9h (P14780 94-707): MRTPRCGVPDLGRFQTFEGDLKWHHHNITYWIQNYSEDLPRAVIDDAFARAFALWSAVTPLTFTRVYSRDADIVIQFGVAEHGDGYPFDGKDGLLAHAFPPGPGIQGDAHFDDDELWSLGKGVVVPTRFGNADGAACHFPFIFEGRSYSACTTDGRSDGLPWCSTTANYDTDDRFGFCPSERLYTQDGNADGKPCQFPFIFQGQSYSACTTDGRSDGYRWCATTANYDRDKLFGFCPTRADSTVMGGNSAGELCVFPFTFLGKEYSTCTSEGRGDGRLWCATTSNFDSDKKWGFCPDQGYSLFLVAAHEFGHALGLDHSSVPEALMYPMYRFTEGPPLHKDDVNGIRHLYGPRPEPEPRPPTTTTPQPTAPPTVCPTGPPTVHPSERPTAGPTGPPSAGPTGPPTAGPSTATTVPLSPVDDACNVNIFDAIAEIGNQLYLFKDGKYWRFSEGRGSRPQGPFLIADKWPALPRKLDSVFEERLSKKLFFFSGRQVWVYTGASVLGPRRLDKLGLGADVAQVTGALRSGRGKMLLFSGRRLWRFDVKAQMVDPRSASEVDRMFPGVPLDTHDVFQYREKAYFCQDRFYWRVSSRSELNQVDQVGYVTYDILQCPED
Method in brief: as §1

MMP-14h = MMP-14h (Homo sapiens (Human), UniProt P50281); test: Inhibition constant (Ki) on MMP-14h; settings: human MMP-14
Method in brief: as §1

MMP-10h = MMP-10h (Homo sapiens (Human), UniProt P09238); test: Inhibition constant (Ki) on MMP-10h; settings: human MMP-10
Chain of MMP-10h (P09238 99-476): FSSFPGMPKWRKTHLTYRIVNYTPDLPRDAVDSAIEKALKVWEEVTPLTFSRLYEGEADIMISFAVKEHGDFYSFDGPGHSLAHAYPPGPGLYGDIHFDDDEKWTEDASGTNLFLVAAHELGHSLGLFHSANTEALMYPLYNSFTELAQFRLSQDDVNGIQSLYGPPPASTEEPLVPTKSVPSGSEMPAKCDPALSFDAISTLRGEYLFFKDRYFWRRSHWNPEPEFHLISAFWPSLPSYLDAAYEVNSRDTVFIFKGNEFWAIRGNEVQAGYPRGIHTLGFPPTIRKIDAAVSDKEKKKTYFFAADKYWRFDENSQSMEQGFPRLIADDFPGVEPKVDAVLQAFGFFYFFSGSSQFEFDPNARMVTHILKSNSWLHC

Chain of MMP-3h (P08254 100-477): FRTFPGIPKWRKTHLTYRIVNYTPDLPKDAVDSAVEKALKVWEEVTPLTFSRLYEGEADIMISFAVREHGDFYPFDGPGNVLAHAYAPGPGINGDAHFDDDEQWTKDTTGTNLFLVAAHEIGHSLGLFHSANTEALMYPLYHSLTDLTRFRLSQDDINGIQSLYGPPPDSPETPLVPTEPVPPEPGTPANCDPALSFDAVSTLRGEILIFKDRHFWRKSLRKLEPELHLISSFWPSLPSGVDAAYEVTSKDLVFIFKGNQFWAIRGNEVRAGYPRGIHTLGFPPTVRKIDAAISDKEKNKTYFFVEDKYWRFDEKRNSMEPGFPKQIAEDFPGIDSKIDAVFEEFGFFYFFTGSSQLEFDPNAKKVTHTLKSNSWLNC
Chain of MMP-8h (P22894 101-467): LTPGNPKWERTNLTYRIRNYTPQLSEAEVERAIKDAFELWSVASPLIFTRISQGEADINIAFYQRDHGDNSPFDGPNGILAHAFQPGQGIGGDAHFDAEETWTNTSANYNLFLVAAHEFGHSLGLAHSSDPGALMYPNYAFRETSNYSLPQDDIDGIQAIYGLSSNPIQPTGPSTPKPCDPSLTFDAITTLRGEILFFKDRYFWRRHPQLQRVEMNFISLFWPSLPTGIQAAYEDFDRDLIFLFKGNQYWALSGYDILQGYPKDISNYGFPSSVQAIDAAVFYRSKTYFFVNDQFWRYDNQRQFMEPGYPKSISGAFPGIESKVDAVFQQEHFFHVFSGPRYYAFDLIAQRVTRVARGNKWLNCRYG

| Compound | Ki (MMP-8h; read-out: Ki MMP-8h) [nM] | Ki (MMP-3h; read-out: Ki MMP-3h) [nM] | Ki (MMP-12h; read-out: Ki MMP-12h) [nM] | Ki (MMP-13h; read-out: Ki MMP-13h) [nM] | Ki (MMP-2h; read-out: Ki MMP-2h) [nM] | Ki (MMP-9h; read-out: Ki MMP-9h) [nM] | Ki (MMP-14h; read-out: Ki MMP-14h) [nM] | Ki (MMP-10h; read-out: Ki MMP-10h) [nM] | Ki (MMP-8h) [nM] | Ki (MMP-3h) [nM] | Ki (MMP-12h) [nM] | Ki (MMP-13h) [nM] | Ki (MMP-2h) [nM] | Ki (MMP-9h) [nM] | Ki (MMP-14h) [nM] | Ki (MMP-10h) [nM] |
| --- | --- | --- | --- | --- | --- | --- | --- | --- | --- | --- | --- | --- | --- | --- | --- | --- |
| NC(=O)[C@H](Cc1ccc(O)cc1)NC(=O)[C@H](CCC(=O)O)NC(=O)CCc1ccc(-c2cccs2)cc1 [Compound 84, (S)-5-((S)-1-amino-3-(4-hydroxyphenyl)-1-oxopropan-2-ylamino)-5-oxo-4-(3-(4-(thiophen-2-yl)phenyl)propanamido)pentanoic acid] | 41 | > 5000 | 20.9 | 584 | 140 | 859 | > 1000 | 514 |  |  |  |  |  |  |  |  |
| NC(=O)[C@H](CCC(=O)O)NC(=O)[C@H](CCC(=O)O)NC(=O)CCc1ccc(-c2cccc(O)c2)cc1 [Compound 54, (S)-5-amino-4-((S)-4-carboxy-2-(3-(3′-hydroxybiphenyl-4-yl)propanamido)butanamido)-5-oxopentanoic acid] | > 1000 | > 10000 | 176 | > 10000 | > 10000 | > 1000 | > 10000 | > 1000 |  |  |  |  |  |  |  |  |
| NC(=O)[C@H](CCC(=O)O)NC(=O)[C@H](CCCC(=O)O)NC(=O)CCc1ccc(-c2cc(-c3ccccc3)cs2)cc1 [Compound 102, (S)-6-((S)-1-amino-4-carboxy-1-oxobutan-2-ylamino)-6-oxo-5-(3-(4-(4-phenylthiophen-2-yl)phenyl)propanamido)hexanoic acid] |  |  |  |  |  |  |  |  | > 5000 | > 10000 | 56 | 635 | > 1000 | > 5000 | > 10000 | > 5000 |
| Cc1csc(-c2ccc(CCC(=O)N[C@@H](CCC(=O)O)C(=O)N[C@@H](CCC(=O)O)C(N)=O)cc2)c1 [Compound 94, (S)-5-amino-4-((S)-4-carboxy-2-(3-(4-(4-methylthiophen-2-yl)phenyl)propanamido)butanamido)-5-oxopentanoic acid] | 233 | > 1000 | 22 | > 1000 | 868 | > 1000 | > 10000 | > 1000 |  |  |  |  |  |  |  |  |
| NC(=O)CC[C@H](NC(=O)[C@H](CCC(=O)O)NC(=O)CCc1cc(-c2ccc(-c3ccccc3)cc2)no1)C(N)=O [Compound 21, (S)-4-(3-(3-(biphenyl-4-yl)isoxazol-5-yl)propanamido)-5-((S)-1,5-diamino-1,5-dioxopentan-2-ylamino)-5-oxopentanoic acid] | 261 | 105 | 5.4 | 49 | 39.3 | > 1000 | > 1000 | 256 |  |  |  |  |  |  |  |  |
| NC(=O)[C@H](CCC(=O)O)NC(=O)[C@H](CC(=O)O)NC(=O)CCc1ccc(-c2ccc(-c3ccccc3)cc2)cc1 [Compound 74, (S)-5-amino-4-((S)-3-carboxy-2-(3-(4′-phenylbiphenyl-4-yl)propanamido)propanamido)-5-oxopentanoic acid] | 865 | 16 | 10.5 | 13.5 | 39 | > 1000 | > 1000 | 430 |  |  |  |  |  |  |  |  |
| NC(=O)CC[C@H](NC(=O)[C@H](CCC(N)=O)NC(=O)CCc1cc(-c2ccc(-c3ccccc3)cc2)no1)C(N)=O [Compound 22, (S)-2-(3-(3-(biphenyl-4-yl)isoxazol-5-yl)propanamido)-N^1-((S)-1,5-diamino-1,5-dioxopentan-2-yl)pentanediamide] | > 1000 | > 10000 | 830 | 436 | > 1000 | > 1000 | > 10000 | > 10000 |  |  |  |  |  |  |  |  |
| Cc1ccsc1-c1ccc(CCC(=O)N[C@@H](CCC(=O)O)C(=O)N[C@@H](CCC(=O)O)C(N)=O)cc1 [Compound 107, (S)-5-amino-4-((S)-4-carboxy-2-(3-(4-(3-methylthiophen-2-yl)phenyl)propanamido)butanamido)-5-oxopentanoic acid] | 766 | > 10000 | 84 | > 1000 | > 1000 | > 10000 | > 5000 | > 1000 |  |  |  |  |  |  |  |  |
| NC(=O)[C@H](Cc1c[nH]cn1)NC(=O)[C@H](CCC(=O)O)NC(=O)CCc1ccc(-c2ccccc2)cc1 [Compound 48, (S)-5-((S)-1-amino-3-(1H-imidazol-4-yl)-1-oxopropan-2-ylamino)-4-(3-(biphenyl-4-yl)propanamido)-5-oxopentanoic acid] | 339 | > 10000 | 75 | > 1000 | 847 | > 5000 | > 10000 | > 1000 |  |  |  |  |  |  |  |  |
| NC(=O)[C@H](CCC(=O)O)NC(=O)CCc1cc(-c2ccccc2)no1 [Compound 15, (S)-5-amino-5-oxo-4-(3-(3-phenylisoxazol-5-yl)propanamido)pentanoic acid] | 114 | > 10000 | 398 | > 1000 | 762 | > 1000 | > 1000 | > 5000 |  |  |  |  |  |  |  |  |
| NC(=O)[C@H](CCC(=O)O)NC(=O)[C@H](Cc1c[nH]cn1)NC(=O)CCc1ccc(-c2ccc(-c3ccccc3)cc2)cc1 [Compound 77, (S)-4-((S)-3-(1H-imidazol-4-yl)-2-(3-(4′-phenylbiphenyl-4-yl)propanamido)propanamido)-5-amino-5-oxopentanoic acid] | > 1000 | > 1000 | 234 | 377 | > 1000 | > 50000 | > 10000 | > 5000 |  |  |  |  |  |  |  |  |
| NC(=O)[C@H](CCC(=O)O)NC(=O)[C@H](CCC(=O)O)NC(=O)CCc1ccc(COc2ccccc2)cc1 [Compound 29, (S)-5-amino-4-((S)-4-carboxy-2-(3-(4-(phenoxymethyl)phenyl)propanamido)butanamido)-5-oxopentanoic acid] | > 1000 | > 10000 | 469 | 117 | > 1000 | > 1000 | > 5000 | > 1000 |  |  |  |  |  |  |  |  |
| NC(=O)[C@H](CCC(=O)O)NC(=O)[C@H](CCC(=O)O)NC(=O)CCc1ccc(I)cc1 [Compound 31, (S)-5-amino-4-((S)-4-carboxy-2-(3-(4-iodophenyl)propanamido)butanamido)-5-oxopentanoic acid] | 839 | > 5000 | 155 | > 1000 | > 1000 | > 1000 | > 1000 | > 1000 |  |  |  |  |  |  |  |  |
| CC(C)C[C@H](NC(=O)[C@H](CCC(=O)O)NC(=O)CCc1ccc(-c2cccs2)cc1)C(N)=O [Compound 88, (S)-5-((S)-1-amino-4-methyl-1-oxopentan-2-ylamino)-5-oxo-4-(3-(4-(thiophen-2-yl)phenyl)propanamido)pentanoic acid] | 73 | > 10000 | 32 | > 1000 | 298 | > 1000 | > 1000 | > 1000 |  |  |  |  |  |  |  |  |
| NCCCC[C@H](NC(=O)CCc1ccc(-c2ccc(-c3ccccc3)cc2)cc1)C(=O)N[C@@H](CCC(=O)O)C(N)=O [Compound 73, (S)-5-amino-4-((S)-6-amino-2-(3-(4′-phenylbiphenyl-4-yl)propanamido)hexanamido)-5-oxopentanoic acid] | > 1000 | 300 | 254 | 97 | 541 | > 10000 | > 10000 | > 1000 |  |  |  |  |  |  |  |  |
| CC(C)C[C@H](NC(=O)[C@H](CCC(=O)O)NC(=O)CCc1ccc(-c2ccc(-c3ccccc3)cc2)cc1)C(N)=O [Compound 69, (S)-5-((S)-1-amino-4-methyl-1-oxopentan-2-ylamino)-4-(3-(4′-phenylbiphenyl-4-yl)propanamido)-5-oxopentanoic acid] | 567 | 258 | 7.8 | 81 | 332 | > 1000 | > 5000 | 382 |  |  |  |  |  |  |  |  |
| NC(=O)[C@H](CCC(=O)O)NC(=O)[C@@H](CCC(=O)O)NC(=O)CCc1cc(-c2ccc(-c3cccc(Cl)c3)cc2)no1 [Compound 6, (S)-5-amino-4-((R)-4-carboxy-2-(3-(3-(3′-chlorobiphenyl-4-yl)isoxazol-5-yl)propanamido)butanamido)-5-oxopentanoic acid] | > 5000 | > 1000 | 401 | 235 | 403 | > 5000 | > 10000 | 489 |  |  |  |  |  |  |  |  |
| NC(=O)[C@H](CCC(=O)O)NC(=O)[C@H](CCC(=O)O)NC(=O)CCc1ccc(C#Cc2ccccc2)cc1 [Compound 30, (S)-5-amino-4-((S)-4-carboxy-2-(3-(4-(phenylethynyl)phenyl)propanamido)butanamido)-5-oxopentanoic acid] | 818 | > 1000 | 154 | 598 | > 1000 | 235 | > 1000 | > 1000 |  |  |  |  |  |  |  |  |
